The text below walks through data of patent US11564923B2, “Compounds and pharmaceutical compositions thereof for the treatment of inflammatory disorders” (Galapagos NV, priority 2017, dated 2023).

The assay deals with T1, Recombinant human TYK2 catalytic domain (amino acids 871-1187) (Homo sapiens, UniProt P29597).
T1 construct: catalytic domain (amino acids 871-1187)
T1 sequence (P29597 871-1187): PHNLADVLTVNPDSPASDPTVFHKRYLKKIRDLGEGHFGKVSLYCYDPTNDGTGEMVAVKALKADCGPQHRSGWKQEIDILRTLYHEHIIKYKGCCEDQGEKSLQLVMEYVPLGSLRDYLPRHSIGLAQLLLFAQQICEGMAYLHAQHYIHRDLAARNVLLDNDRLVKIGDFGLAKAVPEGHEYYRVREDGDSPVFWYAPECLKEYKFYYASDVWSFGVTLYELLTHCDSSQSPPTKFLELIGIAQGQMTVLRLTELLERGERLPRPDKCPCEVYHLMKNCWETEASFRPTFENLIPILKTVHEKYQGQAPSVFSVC
As to the kind of experiment: TYK2 radioactive assay polyGT substrate. Note: 0.1 µM ATP. It is filed as biochemical. As for the experimental part: After 120 min at 30° C., reactions were stopped by adding 25 μL/well of 150 mM phosphoric acid. […] Plates were washed 6 times with 300 μL per well of a 75 mM phosphoric acid solution and the bottom of the plates is sealed. […] Kinase activity is calculated by subtracting counts per min (cpm) obtained in the presence of a positive control inhibitor (10 μM staurosporine) from cpm obtained in the presence of vehicle. The ability of a test compound to inhibit this activity (or percentage inhibition) is determined as: […]
cpm test compound=cpm determined for sample with test compound present cpm control=cpm determined for sample with positive control inhibitor cpm vehicle=cpm determined in the presence of vehicle
Dose dilution series were prepared for the compounds enabling the testing of dose-response effects in the TYK2 assay and the calculation of the IC50 for each compound. Each compound is routinely tested at concentration of 20 μM followed by a 1/5 serial dilution, 10 points in a final concentration of 1% DMSO.

Regarding `Cc1cc(C#N)ncc1Oc1cc(Nc2ccc(N3CCC(C#N)CC3)nn2)c2ncn(C)c2n1` [Compound 45, 5-{7-[6-(4-Cyano-piperidin-1-yl)-pyridazin-3-ylamino]-3-methyl-3H-imidazo[4,5-b]pyridin-5-yloxy}-4-methyl-pyridine-2-carbonitrile], the IC50 is 2.17 nM.
On to `Cc1cc(C#N)ncc1Oc1cc(Nc2ccc(C(=O)N3CCC(O)CC3)cn2)c2ncn(C)c2n1` [Compound 124, 5-[7-[[5-(4-hydroxypiperidine-1-carbonyl)pyridin-2-yl]amino]-3-methylimidazo[4,5-b]pyridin-5-yl]oxy-4-methylpyridine-2-carbonitrile], for which the IC50 worked out at 2.51 nM.
The same measure for `CO[C@@H]1CN(C(=O)c2ccc(Nc3cc(Oc4cnc(C#N)cc4C)nc4c3ncn4C)nc2)C[C@H]1F` (racemic) [Compound 142, 4-methyl-5-[3-methyl-7-[[5-[rac-(3R,4R)-3-fluoro-4-methoxypyrrolidine-1-carbonyl]pyridin-2-yl]amino]imidazo[4,5-b]pyridin-5-yl]oxypyridine-2-carbonitrile]: 4.53 nM; for `Cc1cc(C#N)ncc1Oc1cc(Nc2ccc(C(=O)N3C[C@@H](O)[C@H](F)C3)cn2)c2ncn(C)c2n1` (racemic) [Compound 140, 4-methyl-5-[3-methyl-7-[[5-[rac-(3R,4R)-3-fluroo-4-hydroxypyrrolidine-1-carbonyl]pyridin-2-yl]amino]imidazo[4,5-b]pyridin-5-yl]oxypyridine-2-carbonitrile]: 2.87 nM.
Under `CCNC(=O)Cc1ccc(Nc2cc(Oc3cnc(C#N)cc3C)nc3c2ncn3C)cc1` [Compound 27, 2-{4-[5-(6-Cyano-4-methyl-pyridin-3-yloxy)-3-methyl-3H-imidazo[4,5-b]pyridin-7-ylamino]-phenyl}-N-ethyl-acetamide] stands 38.9 nM.
Under `Cc1cc(C#N)ncc1Oc1cc(Nc2ccc(C(=O)N3CCOC(C#N)C3)cn2)c2ncn(C)c2n1` (stereo not shown) [Compound 160, 4-[6-[[5-(6-cyano-4-methylpyridin-3-yl)oxy-3-methylimidazo[4,5-b]pyridin-7-yl]amino]pyridine-3-carbonyl]morpholine-2-carbonitrile] stands 1.39 nM; under `Cc1cc(C#N)ncc1Oc1cc(Nc2ccc(C(=O)N3CCC(N(C)C(=O)OC(C)(C)C)C3)cn2)c2ncn(C)c2n1` (stereo not shown) [Compound 130, (1-{6-[5-(6-Cyano-4-methyl-pyridin-3-yloxy)-3-methyl-3H-imidazo[4,5-b]pyridin-7-ylamino]-pyridine-3-carbonyl}-pyrrolidin-3-yl)-methyl-carbamic acid tert-butyl ester], 4.67 nM; under `Cc1cc(C#N)ncc1Oc1cc(Nc2ccc(C(=O)N3CCC4(COC4)C3)cn2)c2ncn(C)c2n1` [Compound 131, 4-methyl-5-[3-methyl-7-[[5-(2-oxa-7-azaspiro[3.4]octane-7-carbonyl)pyridin-2-yl]amino]imidazo[4,5-b]pyridin-5-yl]oxypyridine-2-carbonitrile], 2.87 nM.
In the case of `Cc1cc(C#N)ncc1Oc1cc(Nc2ccc(C(=O)N3CC(CO)(CO)C3)cn2)c2ncn(C)c2n1` [Compound 135, 5-[7-[[5-[3,3-bis(hydroxymethyl)azetidine-1-carbonyl]pyridin-2-yl]amino]-3-methylimidazo[4,5-b]pyridin-5-yl]oxy-4-methylpyridine-2-carbonitrile], the IC50 was 2.08 nM.
Under `Cc1cc(C#N)ncc1Oc1cc(Nc2ccc(C(=O)N3CCOCC3)nc2)c2ncn(C)c2n1` [Compound 28, 4-Methyl-5-{3-methyl-7-[6-(morpholine-4-carbonyl)-pyridin-3-ylamino]-3H-imidazo[4,5-b]pyridin-5-yloxy}-pyridine-2-carbonitrile] stands 27.1 nM; under `Cc1cc(C#N)ncc1Oc1cc(Nc2ccc(N3C[C@H]4C[C@@H]3CN4C)nn2)c2ncn(C)c2n1` [Compound 152, 4-methyl-5-[3-methyl-7-[[6-[(1R,4R)-5-methyl-2,5-diazabicyclo[2.2.1]heptan-2-yl]pyridazin-3-yl]amino]imidazo[4,5-b]pyridin-5-yl]oxypyridine-2-carbonitrile], 12.5 nM; under `Cc1cc(C#N)ncc1Oc1cc(Nc2ccc(C(=O)N3CCOCC3C#N)cn2)c2ncn(C)c2n1` (stereo not shown) [Compound 162, 4-[6-[[5-(6-cyano-4-methylpyridin-3-yl)oxy-3-methylimidazo[4,5-b]pyridin-7-yl]amino]pyridine-3-carbonyl]morpholine-3-carbonitrile], 2.06 nM.
Under `COC1CCN(C(=O)c2ccc(Nc3cc(Oc4cnc(C#N)cc4C)nc4c3ncn4C)nc2)CC1` [Compound 125, 5-[7-[[5-(4-methoxypiperidine-1-carbonyl)pyridin-2-yl]amino]-3-methylimidazo[4,5-b]pyridin-5-yl]oxy-4-methylpyridine-2-carbonitrile] stands 2.26 nM; under `Cc1cc(C#N)ncc1Oc1cc(Nc2ccc(C(=O)N3CCN(C(=O)OC(C)(C)C)CC3)cn2)c2ncn(C)c2n1` [Compound 128, 4-{6-[5-(6-Cyano-4-methyl-pyridin-3-yloxy)-3-methyl-3H-imidazo[4,5-b]pyridin-7-ylamino]-pyridine-3-carbonyl}-piperazine-1-carboxylic acid tert-butyl ester], 5.87 nM; under `Cc1cc(C#N)ncc1Oc1cc(Nc2ccc(C(=O)N3CC4(CN(C)C4)C3)cn2)c2ncn(C)c2n1` [Compound 123, 4-methyl-5-[3-methyl-7-[[5-(6-methyl-2,6-diazaspiro[3.3]heptane-2-carbonyl)-2-pyridyl]amino]imidazo[4,5-b]pyridin-5-yl]oxy-pyridine-2-carbonitrile], 9.38 nM.
The same measure for `Cc1cc(C#N)ncc1Oc1cc(Nc2ccc(C(=O)N(C)CCO)cn2)c2ncn(C)c2n1` [Compound 136, 6-[[5-(6-cyano-4-methylpyridin-3-yl)oxy-3-methylimidazo[4,5-b]pyridin-7-yl]amino]-N-(2-hydroxyethyl)-N-methylpyridine-3-carboxamide]: 2.76 nM; for `Cc1cc(C#N)ncc1Oc1cc(Nc2ccc(C(=O)N3CC4(CCO4)C3)cn2)c2ncn(C)c2n1` [Compound 120, 4-methyl-5-[3-methyl-7-[[5-(3-oxa-6-azaspiro[3.3]heptane-6-carbonyl)-2-pyridyl]amino]imidazo[4,5-b]pyridin-5-yl]oxy-pyridine-2-carbonitrile]: 1.57 nM.
Consider `Cc1cc(C#N)ncc1Oc1cc(Nc2ccc(C(=O)N3CC[C@@H](O)C3)cn2)c2ncn(C)c2n1` [Compound 127, 5-[7-[[5-[(3R)-3-hydroxypyrrolidine-1-carbonyl]pyridin-2-yl]amino]-3-methylimidazo[4,5-b]pyridin-5-yl]oxy-4-methylpyridine-2-carbonitrile], for which the half-maximal inhibitory concentration (IC50) came to 3.36 nM.
The same measure for `Cc1cc(C#N)ncc1Oc1cc(Nc2ccc(N3CCN(C)CC3)cc2)c2ncn(C)c2n1` [Compound 110, 4-methyl-5-[3-methyl-7-[4-(4-methylpiperazin-1-yl)anilino]imidazo[4,5-b]pyridin-5-yl]oxy-pyridine-2-carbonitrile]: 26.7 nM; for `Cc1cc(C#N)ncc1Oc1cc(Nc2ccc(C(=O)N3CCC(N(C)C)CC3)cn2)c2ncn(C)c2n1` [Compound 126, 5-[7-[[5-[4-(dimethyalmino)piperidine-1-carbonyl]pyridin-2-yl]amino]-3-methylimidazo[4,5-b]pyridin-5-yl]oxy-4-methylpyridine-2-carbonitrile]: 5.54 nM; for `Cc1cc(C#N)ncc1Oc1cc(Nc2ccc(N3CC(N(C)C)C3)nn2)c2ncn(C)c2n1` [Compound 143, 5-[7-[[6-[3-(dimethylamino)azetidin-1-yl]pyridazin-3-yl]amino]-3-methylimidazo[4,5-b]pyridin-5-yl]oxy-4-methylpyridine-2-carbonitrile]: 4.55 nM.
The same measure for `Cc1cc(C#N)ncc1Oc1cc(Nc2ccc(C(=O)N3CC(C(=O)OC(C)(C)C)C3)cn2)c2ncn(C)c2n1` [Compound 122, tert-butyl 1-[6-[[5-[(6-cyano-4-methyl-3-pyridyl)oxy]-3-methyl-imidazo[4,5-b]pyridin-7-yl]amino]pyridine-3-carbonyl]azetidine-3-carboxylate]: 3.03 nM; for `Cc1cc(C#N)ncc1Oc1cc(Nc2ccc(C(=O)N3CCOC[C@H]3C(C)C)cn2)c2ncn(C)c2n1` [Compound 157, 4-methyl-5-[3-methyl-7-[[5-[(3R)-3-propan-2-ylmorpholine-4-carbonyl]pyridin-2-yl]amino]imidazo[4,5-b]pyridin-5-yl]oxypyridine-2-carbonitrile]: 0.97 nM.
The same measure for `COC1(C)CN(C(=O)c2ccc(Nc3cc(Oc4cnc(C#N)cc4C)nc4c3ncn4C)nc2)C1` [Compound 121, 5-[7-[[5-(3-methoxy-3-methyl-azetidine-1-carbonyl)-2-pyridyl]amino]-3-methyl-imidazo[4,5-b]pyridin-5-yl]oxy-4-methyl-pyridine-2-carbonitrile]: 1.9 nM; for `Cc1cc(C#N)ncc1Oc1cc(Nc2ccc(N3CCOCC3)cc2)c2ncn(C)c2n1` [Compound 109, 4-methyl-5-[3-methyl-7-(4-morpholinoanilino)imidazo[4,5-b]pyridin-5-yl]oxy-pyridine-2-carbonitrile]: 24.4 nM.
